Common to all, as to type: biochemical
Experiment [1] relates to PDE4 (cAMP-specific) in the cytosol of human polymorphonuclear leukocytes (PMNL). The experiment is described as follows: PDE4 inhibition, Method A (radioactive PDE assay after Thompson et al.). To be noted: cAMP substrate, motapizone 1 μM. As for the experimental part: (§1) The PDE activity was determined according to Thompson et al. (Adv Cycl Nucl Res 10: 69-92, 1979) with some modifications (Bauer and Schwabe, Naunyn-Schmiedeberg's Arch Pharmacol 311: 193-198, 1980). The test samples contained 20 mM Tris (pH 7.4), 5 mM MgCl2, 0.5 μM CAMP or cGMP, [^3H]cAMP or [^3H]cGMP (about 30 000 cpm/sample), the PDE isoenzyme-specific additives described in greater detail below, the indicated concentrations of inhibitor and an aliquot of the enzyme solution in a total sample volume of 200 μl. Dilution series of the compounds according to the invention were prepared in DMSO and further diluted in the samples [1:100 (v/v)], to give the desired end concentration of the inhibitors at a DMSO concentration of 1% (v/v), which for its part has only a minute effect on PDE activity.
(§2) After preincubation at 37° C. for 5 minutes, the reaction was started by addition of the substrate (CAMP or cGMP). The samples were incubated at 37° C. for a further 15 min. The reaction was terminated by addition of 50 μl 0.2 N HCl. After cooling on ice for 10 minutes and addition of 25 μg 5′-nucleotidase (snake venom from Crotalus atrox), the mixture was again incubated at 37° C. for 10 min and the samples were then applied to QAE Sephadex A-25 columns (sample volume 1 ml). The columns were eluted with 2 ml of 30 mM ammonium formate (pH 6.0). The radioactivity of the eluate was measured and corrected by the corresponding blank values (measured in the presence of denatured protein); the blank values were less than 5% of the total radioactivity. In no case did the proportion of hydrolyzed nucleotide exceed 30% of the original substrate concentration.
PDE4 (cAMP-specific) was investigated in the cytosol of human polymorphonuclear leukocytes (PMNL) [isolated from leukocyte concentrates, see Schudt et al., Arch Pharmacol 1991: 344, 682-690] using cAMP as substrate. The PDE3 inhibitor motapizone (1 μM) was used to suppress the PDE3 activity emanating from contaminated platelets.
(§3) The IC50 values were determined from the concentration-inhibition curves by nonlinear regression.
(§4) The inhibitory values of the compounds 1-16 and 22-24 have been determined according to Method A. The inhibitory values of the compounds 17-21 have been determined according to Method B.

Experiment [2] deals with T1, PDE3 (cGMP-inhibited) in homogenates of human platelets (Homo sapiens, UniProt Q14432).
T1 construct: investigated in homogenates of human platelets; from tissue; host or cells: homogenates of human platelets
The experiment is described as follows: PDE3 inhibition, Method A (radioactive PDE assay after Thompson et al.). The conditions noted are these: read-out: PDE3 [−log IC50, mol/l] (converted). As for the experimental part: as §1, §2
PDE3 (cGMP-inhibited) was investigated in homogenates of human platelets (see Schudt et al., Biochem Pharmacol 1991: 42, 153-162) using CAMP or cGMP as substrate.
as §3, §4

A further experiment concerns the target T2, PDE4B2 (Homo sapiens, UniProt Q07343).
T2 construct: made in house; host or cells: baculovirus, SF21 insect cells (virus made in SF9); 1000xg supernatant of the homogenate
In words: PDE4B2 inhibition, Method B (modified SPA test, recombinant enzyme). The conditions noted are these: 0.5 μM cAMP, read-out: PDE4 [−log IC50, mol/l] (converted). As for the experimental part: The PDE4B2 (GB no. M97515) was a gift of Prof. M. Conti (Stanford University, USA). It was amplified from the original plasmid (pCMV5) via PCR with primers Rb9 (5′-[…]-3′) and Rb10 (5′-[…]-3′) and cloned into the pCR-Bac vector (Invitrogen, Groningen, NL).
(§5) The recombinant baculovirus was prepared by means of homologous recombination in SF9 insect cells. The expression plasmids were cotransfected with Bac-N-Blue (Invitrogen, Groningen, NL) or Baculo-Gold DNA (Pharmingen, Hamburg) using a standard protocol (Pharmingen, Hamburg). Wt virus-free recombinant virus supernatants were selected using plaque assay methods. After that, high-titre virus supernatants were prepared by amplifying 3 times. PDEs were expressed in SF21 cells by infecting 2×10^6 cells/ml with an MOI (multiplicity of infection) between 1 and 10 in serum-free SF900 medium (Life Technologies, Paisley, UK). The cells were cultured at 28° C. for 48-72 hours, after which they were pelleted for 5-10 min at 1000 g and 4° C.
(§6) The SF21 insect cells were resuspended, at a concentration of approx. 10^7 cells/ml, in ice-cold (4° C.) homogenization buffer (20 mM Tris, pH 8.2, containing the following additions: 140 mM NaCl, 3.8 mM KCl, 1 mM EGTA, 1 mM MgCl2, 10 mM β-mercaptoethanol, 2 mM benzamidine, 0.4 mM Pefablock, 10 μM leupeptin, 10 μM pepstatin A, 5 μM trypsin inhibitor) and disrupted by ultrasonication. The homogenate was then centrifuged for 10 min at 1000×g and the supernatant was stored at −80° C. until subsequent use (see below). The protein content was determined by the Bradford method (BioRad, Munich) using BSA as the standard.
PDE3A1 and PDE4B2 activities were inhibited by the said compounds in a modified SPA (scintillation proximity assay) test, supplied by Amersham Biosciences (see procedural instructions “phosphodiesterase [3H]cAMP SPA enzyme assay, code TRKQ 7090”), carried out in 96-well microtitre plates (MTP's). The test volume is 100 μl and contains 20 mM Tris buffer (pH 7.4), 0.1 mg of BSA (bovine serum albumin)/ml, 5 mM Mg^2+, 0.5 μM cAMP (including about 50,000 cpm of [3H]cAMP), 1 μl of the respective substance dilution in DMSO and sufficient recombinant PDE (1000×g supernatant, see above) to ensure that 10-20% of the cAMP is converted under the said experimental conditions. […] After a preincubation of 5 min at 37° C., the reaction is started by adding the substrate (cAMP) and the assays are incubated for a further 15 min; after that, they are stopped by adding SPA beads (50 μl). In accordance with the manufacturer's instructions, the SPA beads had previously been resuspended in water, but were then diluted 1:3 (v/v) in water; the diluted solution also contains 3 mM IBMX to ensure a complete PDE activity stop. After the beads have been sedimented (>30 min), the MTP's are analyzed in commercially available luminescence detection devices. The corresponding IC50 values of the compounds for the inhibition of PDE activities are determined from the concentration-effect curves by means of non-linear regression.
as §4

Another experiment concerns the target T3, PDE3A1 (Homo sapiens, UniProt Q14432).
T3 construct: The whole ORF was subcloned into pBacPak9 (Clontech, Palo Alto) using EcoRI; made in house; host or cells: baculovirus (pBacPak9), SF21 insect cells (virus made in SF9); 1000xg supernatant of the homogenate
The experiment is described as follows: PDE3A1 inhibition, Method B (modified SPA test, recombinant enzyme). To be noted: 0.5 μM cAMP, read-out: PDE3 [−log IC50, mol/l] (converted).
Text: The cDNA for PDE3A1 (GB no. U36798) was isolated in 2 steps using PCR. A 3′ terminal cDNA fragment of PDE3A1 was amplified from fat cells cDNA (Clontech, Palo Alto) using primers OZ 458 (5′-[…]-3′) and OZ 457 (5′-[…]-3′). The 5′ terminal cDNA fragment of PDE3A1 was amplified from Placenta cDNA (Clontech, Palo Alto) using primers OZ 455 (5′-[…]-3′) and OZ 456 (5′-[…]-3′). The PCR products were cloned into pCR2.1-Topo (Invitrogen, Groningen, NL) under standard conditions (the manufacturer's instructions). The 3′ fragment was cut out with HindII and cloned into the HindII site of the construct carrying the 5′ fragment. The whole ORF was subcloned into pBacPak9 (Clontech, Palo Alto) using EcoRI. Aminoacid 12 is Aspartic Acid like in sequence GB no. AJ005036, aa 69 and aa 110 are respective Serine and Glycine like in both sequences GB no. AJ005036 and GB no. M91667.
as §5, §6
PDE3A1 and PDE4B2 activities were inhibited by the said compounds in a modified SPA (scintillation proximity assay) test, supplied by Amersham Biosciences (see procedural instructions “phosphodiesterase [3H]cAMP SPA enzyme assay, code TRKQ 7090”), carried out in 96-well microtitre plates (MTP's). The test volume is 100 μl and contains 20 mM Tris buffer (pH 7.4), 0.1 mg of BSA (bovine serum albumin)/ml, 5 mM Mg^2+, 0.5 μM cAMP (including about 50,000 cpm of [3H]cAMP), 1 μl of the respective substance dilution in DMSO and sufficient recombinant PDE (1000×g supernatant, see above) to ensure that 10-20% of the cAMP is converted under the said experimental conditions. […] After the beads have been sedimented (>30 min), the MTP's are analyzed in commercially available luminescence detection devices. The corresponding IC50 values of the compounds for the inhibition of PDE activities are determined from the concentration-effect curves by means of non-linear regression.
as §4

T3 sequence (Q14432 whole entry): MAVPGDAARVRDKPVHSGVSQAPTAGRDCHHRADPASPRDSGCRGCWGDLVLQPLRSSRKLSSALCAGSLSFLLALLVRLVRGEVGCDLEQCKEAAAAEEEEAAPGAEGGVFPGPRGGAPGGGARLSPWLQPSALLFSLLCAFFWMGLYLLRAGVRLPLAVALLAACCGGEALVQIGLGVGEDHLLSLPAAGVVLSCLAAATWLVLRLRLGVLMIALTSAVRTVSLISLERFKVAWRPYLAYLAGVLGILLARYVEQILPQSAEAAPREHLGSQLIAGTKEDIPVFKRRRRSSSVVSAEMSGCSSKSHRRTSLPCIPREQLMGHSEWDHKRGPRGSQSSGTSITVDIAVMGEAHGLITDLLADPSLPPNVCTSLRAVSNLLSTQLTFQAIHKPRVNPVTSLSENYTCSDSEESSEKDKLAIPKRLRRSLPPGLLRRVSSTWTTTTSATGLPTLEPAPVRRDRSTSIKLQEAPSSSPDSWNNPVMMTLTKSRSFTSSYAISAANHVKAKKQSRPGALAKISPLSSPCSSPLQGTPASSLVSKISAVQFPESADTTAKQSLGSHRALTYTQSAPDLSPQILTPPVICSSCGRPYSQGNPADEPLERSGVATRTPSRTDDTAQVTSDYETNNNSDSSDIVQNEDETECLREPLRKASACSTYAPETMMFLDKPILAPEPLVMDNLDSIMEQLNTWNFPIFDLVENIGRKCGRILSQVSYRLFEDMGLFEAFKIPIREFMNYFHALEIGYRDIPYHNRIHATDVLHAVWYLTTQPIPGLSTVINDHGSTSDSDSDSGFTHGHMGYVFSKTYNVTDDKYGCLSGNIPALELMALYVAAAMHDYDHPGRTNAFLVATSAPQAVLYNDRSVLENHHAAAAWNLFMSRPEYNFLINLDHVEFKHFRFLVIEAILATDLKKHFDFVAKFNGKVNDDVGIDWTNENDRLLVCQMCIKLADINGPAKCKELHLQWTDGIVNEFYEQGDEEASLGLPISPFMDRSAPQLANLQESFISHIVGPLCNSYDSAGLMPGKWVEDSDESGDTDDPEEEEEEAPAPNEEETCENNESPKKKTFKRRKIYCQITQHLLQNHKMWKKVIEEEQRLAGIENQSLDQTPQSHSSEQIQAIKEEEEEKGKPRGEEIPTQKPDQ
T1 sequence (Q14432 whole entry): as above
T2 sequence (Q07343 1-564 isoform Q07343-2): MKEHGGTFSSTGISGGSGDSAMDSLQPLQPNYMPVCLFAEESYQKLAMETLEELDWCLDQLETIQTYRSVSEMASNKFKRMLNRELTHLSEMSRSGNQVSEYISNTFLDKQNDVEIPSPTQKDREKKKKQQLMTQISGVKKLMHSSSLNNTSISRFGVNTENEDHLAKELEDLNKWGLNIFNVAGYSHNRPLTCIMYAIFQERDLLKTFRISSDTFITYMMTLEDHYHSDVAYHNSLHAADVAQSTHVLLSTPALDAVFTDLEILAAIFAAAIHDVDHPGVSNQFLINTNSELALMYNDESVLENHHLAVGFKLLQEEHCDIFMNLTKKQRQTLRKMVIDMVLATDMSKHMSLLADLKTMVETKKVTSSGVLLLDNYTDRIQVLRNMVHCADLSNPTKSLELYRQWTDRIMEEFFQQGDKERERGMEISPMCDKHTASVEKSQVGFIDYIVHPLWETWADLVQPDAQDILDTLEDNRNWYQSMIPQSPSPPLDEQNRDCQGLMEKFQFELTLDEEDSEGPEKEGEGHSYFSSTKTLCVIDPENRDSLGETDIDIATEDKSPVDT

`CCCCOCCCNC(=O)c1ccc(C2=N[C@@H]3CCN(C)C[C@@H]3c3cc(OCC)c(OC)cc32)cc1.Cl` [Compound 16, N-(3-Butoxy-propyl)-4-((4aR,10bS)-9-ethoxy-8-methoxy-2-methyl-1,2,3,4,4a,10b-hexahydro-benzo [c][1,6]naphthyridin-6-yl)-benzamide; hydrochloride]: the “PDE4 [−log IC50, mol/l]” value in experiment [1] came out at 8.5 mol/l. In addition, in experiment [2], the IC50 was 398 nM.

Regarding `CCOc1cc2c(cc1OC)C(c1ccc(C(=O)N(C(C)C)[C@@H](C)COCc3cc(OC)cc(OC)c3)cc1)=N[C@@H]1CCN(C)C[C@H]21` [Compound 17, N—[(S)-2-(3,5-Dimethoxy-benzyloxy)-1-methyl-ethyl]-4-((4aR,10bS)-9-ethoxy-8-methoxy-2-methyl-1,2,3,4,4a,10b-hexahydro-benzo[c][1,6]naphthyridin-6-yl)-N-isopropyl-benzamide], the figures for the IC50 at PDE4B2 and on PDE3A1 were 0.316 nM and 39.8 nM, respectively.

Take `CCOc1cc2c(cc1OC)C(c1ccc(C(=O)N(C(C)C)[C@@H](C)COCc3ccc(C(F)(F)F)cc3)cc1)=N[C@@H]1CCN(C)C[C@H]21` [Compound 18, 4-((4aR,10bS)-9-Ethoxy-8-methoxy-2-methyl-1,2,3,4,4a,10b-hexahydro-benzo [c][1,6]naphthyridin-6-yl)-N-isopropyl-N—[(S)-1-methyl-2-(4-trifluoromethyl-benzyloxy)-ethyl]-benzamide]: the IC50 at PDE4B2 is 1 nM; on PDE3A1 it was 79.4 nM.

Regarding `CCOc1cc2c(cc1OC)C(c1ccc(C(=O)N(C(C)C)[C@@H](C)COCc3ccc(C#N)cc3)cc1)=N[C@@H]1CCN(C)C[C@H]21` [Compound 19, N—[(S)-2-(4-Cyano-benzyloxy)-1-methyl-ethyl]-4-((4aR,10bS)-9-ethoxy-8-methoxy-2-methyl-1,2,3,4,4a,10b-hexahydro-benzo[c][1,6]naphthyridin-6-yl)-N-isopropyl-benzamide], the IC50 is 0.398 nM at PDE4B2 and 25.1 nM at PDE3A1.

For `CCOc1cc2c(cc1OC)C(c1ccc(C(=O)N(C(C)C)[C@@H](C)COCc3ccc(OC)cc3)cc1)=N[C@@H]1CCN(C)C[C@H]21` [Compound 20, 4-((4aR,10bS)-9-Ethoxy-8-methoxy-2-methyl-1,2,3,4,4a,10b-hexahydro-benzo [c][1,6]naphthyridin-6-yl)-N-isopropyl-N—[(S)-2-(4-methoxy-benzyloxy)-1-methyl-ethyl]-benzamide], the IC50 on PDE4B2 was 0.316 nM; on PDE3A1 it was 39.8 nM.

For the compound `CCOc1cc2c(cc1OC)C(c1ccc(C(=O)N(C(C)C)[C@@H](C)COCCCc3ccccc3)cc1)=N[C@@H]1CCN(C)C[C@H]21` [Compound 21, 4-((4aR,10bS)-9-Ethoxy-8-methoxy-2-methyl-1,2,3,4,4a,10b-hexahydro-benzo [c][1,6]naphthyridin-6-yl)-N-isopropyl-N—[(S)-1-methyl-2-(3-phenyl-propoxy)-ethyl]-benzamide], the values for the IC50 at PDE4B2 and on PDE3A1 were 2 nM and 39.8 nM, respectively.

For `CCOc1cc2c(cc1OC)C(c1ccc(C(=O)N(C)[C@H](COCc3ccccc3)CC(C)C)cc1)=N[C@@H]1CCN(C)C[C@H]21` [Compound 22, N—((S)-1-Benzyloxymethyl-3-methyl-butyl)-4-((4aR,10bS)-9-ethoxy-8-methoxy-2-methyl-1,2,3,4,4a,10b-hexahydro-benzo[c][1,6]naphthyridin-6-yl)-N-methyl-benzamide], in experiment [1], the “PDE4 [−log IC50, mol/l]” value came to 9.4 mol/l. In experiment [2], the IC50 is 63.1 nM.

In the case of `CCOc1cc2c(cc1OC)C(c1ccc(C(=O)N(Cc3ccccc3)[C@@H](C)COCc3ccccc3)cc1)=N[C@@H]1CCN(C)C[C@H]21` [Compound 23, N-Benzyl-N-((S)-2-benzyloxy-1-methyl-ethyl)-4-((4aR,10bS)-9-ethoxy-8-methoxy-2-methyl-1,2,3,4,4a,10b-hexahydro-benzo[c][1,6]naphthyridin-6-yl)-benzamide], in experiment [1], the “PDE4 [−log IC50, mol/l]” value was 9.5 mol/l. Also, the IC50 in experiment [2] is 158 nM.

With `CCOc1cc2c(cc1OC)C(c1ccc(C(=O)N[C@@H](C)COCc3ccccc3)cc1)=N[C@@H]1CCN(C)C[C@H]21` [Compound 24, N—((S)-2-Benzyloxy-1-methyl-ethyl)-4-((4aR,10bS)-9-ethoxy-8-methoxy-2-methyl-1,2,3,4,4a,10b-hexahydro-benzo[c][1,6]naphthyridin-6-yl)-benzamide], in experiment [1], the “PDE4 [−log IC50, mol/l]” value worked out at 9.0 mol/l. In experiment [2], the IC50 is 251 nM.
